Legend:
MDR A. baumannii AB-1 = assay: Murine septicemia model; assay type: in vivo, BALB/c mice; conditions: single dose 15 mg/kg
Method: (§1) Murine septicemia model was used to evaluate the in vivo efficacy of PIM1D. The experiment for mice septicemia infection model of MDR P. aeruginosa PAER and MDR A. baumannfi AB-1 was conducted within guidance of approved protocol by the Institutional Care and Use Committee of Nanyang Technological University (NTU IACUC). The experiments for murine septicemia infection model of wild type P. aeruginosa PAO1 and methicillin-resistant S. aureus MRSA USA300 were conducted following protocol reviewed and approved by Animal Ethics and Welfare Committee (AEWC) of Ningbo University. BALB/c female mice (8-9 weeks of age) were used to test the septic shock protection efficacy for all murine infection models. Exponential phase bacteria were washed twice with saline, and re-suspended into the same volume of saline. 300 μL bacterial suspension with varied concentration in 5% mucin was introduced into each mouse via IP injection to first determine the lethal bacterial dosage, and the determined concentration was then used in the following study. […] Mouse survival was monitored over 7 days. […] Bacterial loads were also evaluated in the spleen, liver and kidney of the animal. […] The bacterial levels were analyzed with one-way classification analysis of variance (ANOVA) and two-tailed student's t-test (Graphpad Prism for Windows, version 7).

P. aeruginosa PAO1 [1] = assay: Laboratory evolution of resistance, sequential passage; conditions: 30 days of passage
[2] = system: methicillin-resistant S. aureus MRSA USA300; assay: Murine septicemia model, immunosuppressed mice; assay type: in vivo, BALB/c mice; conditions: 15 mg/kg IP at 2 h and 26 h post-infection
Method: as §1, with “7). […]” for “7).”

MRSA USA300 = assay: Neutropenic lung infection model; assay type: in vivo, BALB/c mice; conditions: 20 mg/kg intratracheal, one week
Method: (§2) Immunosuppression was induced by IP injection of cyclophosphamide (150 mg/kg) at day 4 and cyclophosphamide (100 mg/kg) at day 1 into BALB/c female mice (8-9 weeks of age) before infection was introduced. Lung infection was established by intratracheal delivery of MRSA USA300 or K. pneumoniae (#13883). […] The mice were monitored for survival over one week. In a separate experiment, mice lungs were harvested 26 h post-infection and homogenized, followed by plating to check the bacterial burden. The animal study protocols were approved by animal ethics and welfare committee at Ningbo University.

P. aeruginosa PAO1 [3] = assay: MIC90 broth microdilution; assay type: cell-based, Pseudomonas aeruginosa
P. aeruginosa PAER = assay: MIC90 broth microdilution; assay type: cell-based, Pseudomonas aeruginosa
A. baumannii AB-1 (MDR) = assay: MIC90 broth microdilution; assay type: cell-based, Acinetobacter baumannii
E. coli 958 (MDR) = assay: MIC90 broth microdilution; assay type: cell-based, Escherichia coli
P. aeruginosa PAK pmrB12 = assay: MIC90 broth microdilution; assay type: cell-based, Pseudomonas aeruginosa
A. baumannii X26 = assay: MIC90 broth microdilution; assay type: cell-based, Acinetobacter baumannii; parameters: MIC90 A. baumanii X26 (MDR): unit not given here
A. baumannii X39 = assay: MIC90 broth microdilution; assay type: cell-based, Acinetobacter baumannii; parameters: MIC90 A. baumanii X39 (XDR): unit not given here
A. baumannii X40 (EDR) = assay: MIC90 broth microdilution; assay type: cell-based, Acinetobacter baumannii
[4] = system: Burkholderia thailandensis 700388; assay type: cell-based; parameters: MIC90 Burkholderia thailandensis 700388: unit not given here; conditions: for MIC90 Burkholderia thailandensis 700388: naturally colistin-resistant
K. pneumoniae KPNR (MDR) = assay: MIC90 broth microdilution; assay type: cell-based, Klebsiella pneumoniae
E. cloacae CRE (MDR) = assay: MIC90 broth microdilution; assay type: cell-based, Enterobacter cloacae
[5] = system: P. aeruginosa PAES (clinical); assay: MIC90 broth microdilution; assay type: cell-based, Pseudomonas aeruginosa
[6] = system: K. pneumoniae SGH10 (clinical strain); assay: MIC90 broth microdilution; assay type: cell-based, Klebsiella pneumoniae
[7] = system: K. pneumoniae BAK085 (MDR); assay: MIC90 broth microdilution; assay type: cell-based, Klebsiella pneumoniae
K. pneumoniae M7 (MDR) = assay: MIC90 broth microdilution; assay type: cell-based, Klebsiella pneumoniae
E. cloacae ECLOS (MDR) = assay: MIC90 broth microdilution; assay type: cell-based, Enterobacter cloacae
3T3 cells = assay: Mammalian cell cytotoxicity, MTT; assay type: cell-based, Mouse; conditions: half-maximal inhibition of cell viability
HEK293 cells = assay: Mammalian cell cytotoxicity, MTT; assay type: cell-based, Human
HepG2 cells = assay: Mammalian cell cytotoxicity, MTT; assay type: cell-based, Human
A549 cells = assay: Mammalian cell cytotoxicity, MTT; assay type: cell-based, Human
P. aeruginosa PAO1 [8] = assay: Propidium iodide (PI) staining; assay type: cell-based, Pseudomonas aeruginosa; conditions: 1 h incubation
Method: P. aeruginosa PAO1 was used in the PI experiments. Cells grown in MHB were harvested in mid-Log phase and resuspended in fresh MHB. PIM1 or colistin (positive control) was added at the indicated concentrations. After 1-hour incubation with the antimicrobials, the cell suspensions were sampled to determine cells numbers by plate counting. The remaining cells were washed with PBS and stained with PI (15 μg/mL) according to the manufacturer's protocol. Attune N×T Flow cytometry (Thermo Fisher Scientific, USA) was used to determine the percent of cells that had taken up PI (dead cells). A Zeiss LSM800 confocal microscope was used to image cells on a polylysine-coated petri-dish (MatTek Corporation, USA).

K. pneumoniae (#13883) = assay: Neutropenic lung infection model; assay type: in vivo, BALB/c mice
Method: as §2

P. aeruginosa PAO1 [9] = assay: Killing of stationary phase bacteria; assay type: cell-based, Pseudomonas aeruginosa
Source text: We used a previously reported method (S. Meylan et al., Cell Chem. Biol. 2017, 24, 195-206) to determine the effect of PIM1 and other antibiotics on the survival of stationary phase P. aeruginosa PAO1, except the stationary-phase cells were obtained by overnight growth in MHB, and we compared PIM1 with GEN. The results were compared to those with P. aeruginosa PAO1 harvested from MHB culture at the mid-Log growth phase. In addition, we tested the ability of an energy source to potentiate PIM1 killing of stationary-phase P. aeruginosa by addition of fumarate (15 mM) to the stationary-phase cells.

P. aeruginosa PAO1 [10] = assay: Membrane electric potential, DiS-C3-(5); assay type: cell-based, Pseudomonas aeruginosa; conditions: 30 min after addition
Method: Agents Chemother. 2000, 44, 3317-3321). […] The cell suspension (180 μL) was then added to each well of a 96-well plate, and the test compounds were added to the wells as indicated to bring the final mixture to 200 μL. Fluorescence was measured in each well every 2 min in a Spark 10M microtiter plate reader (Tecan, Switzerland) with excitation at 622 nm and emission 670 nm. Data were collected at 30 min after the addition of the test compound. Two independent experiments were conducted, and the data here are mean values±SD.

S. aureus USA300 (MRSA) = assay: MIC90 broth microdilution; assay type: cell-based, Staphylococcus aureus
S. aureus BAA40 (MRSA) = assay: MIC90 broth microdilution; assay type: cell-based, Staphylococcus aureus; parameters: unit not given here
E. faecalis 583 (VRE) = assay: MIC90 broth microdilution; assay type: cell-based, Enterococcus faecalis; parameters: unit not given here
[11] = system: Mycobacterium bovis bacillus Calmette-Guérin; assay type: cell-based
[12] = half-maximal inhibition of cell viability

Molecule: C[C@@H](O)[C@H]1C(=O)N2C(C(=O)O)=C(SCCN=CN)C[C@H]12 [Imp, Imipenem]
- survival (MDR A. baumannii AB-1): 80%

Molecule: O=C(O)c1cn(C2CC2)c2cc(N3CCNCC3)c(F)cc2c1=O [ciprofloxacin]
- emergence of resistant mutants (P. aeruginosa PAO1 [1]): ciprofloxacin-resistant mutants emerged

Molecule: CN[C@H](CC(C)C)C(=O)N[C@H]1C(=O)N[C@@H](CC(N)=O)C(=O)N[C@H]2C(=O)N[C@H]3C(=O)N[C@H](C(=O)N[C@H](C(=O)O)c4cc(O)cc(O)c4-c4cc3ccc4O)[C@H](O)c3ccc(c(Cl)c3)Oc3cc2cc(c3O[C@@H]2O[C@H](CO)[C@@H](O)[C@H](O)[C@H]2O[C@H]2C[C@](C)(N)[C@H](O)[C@H](C)O2)Oc2ccc(cc2Cl)[C@H]1O [vancomycin]
- survival [2]: all mice survived
- survival (MRSA USA300): 40%

Molecule: colistin
- MIC90 P. aeruginosa PAO1 (P. aeruginosa PAO1 [3]): 2 µg/mL
- MIC90 P. aeruginosa PAER (P. aeruginosa PAER): 1 mg per mL
- MIC90 P. aeruginosa PAER (MDR) (P. aeruginosa PAER): 1 µg/mL
- MIC90 A. baumanii AB-1 (MDR) (A. baumannii AB-1 (MDR)): 2 mg per mL
- MIC90 A. baumannii AB-1 (MDR) (A. baumannii AB-1 (MDR)): 2 µg/mL
- MIC90 E. coli 958 (MDR) (E. coli 958 (MDR)): 2 µg/mL
- MIC90 P. aeruginosa PAK pmrB12 (P. aeruginosa PAK pmrB12): 16 µg/mL
- MIC90 A. baumanii X26 (MDR) (A. baumannii X26): 2
- MIC90 A. baumannii X26 (EDR) (A. baumannii X26): 2 µg/mL
- MIC90 A. baumanii X39 (XDR) (A. baumannii X39): 4-8
- MIC90 A. baumannii X39 (EDR) (A. baumannii X39): 4 to 8 µg/mL
- MIC90 A. baumannii X40 (EDR) (A. baumannii X40 (EDR)): 8 µg/mL
- MIC90 B. Thailandensis 700388 [4]: >128 µg/mL
- MIC90 Burkholderia thailandensis 700388 [4]: >128
- MIC90 K. pneumoniae KPNR (MDR) (K. pneumoniae KPNR (MDR)): 2 µg/mL
- MIC90 E. cloacae CRE (MDR) (E. cloacae CRE (MDR)): 2 µg/mL
- MIC90 P. aeruginosa PAES (clinical) [5]: 2 µg/mL
- MIC90 K. pneumoniae SGH10 (clinical strain) [6]: 2 µg/mL
- MIC90 K. pneumoniae BAK085 (MDR) [7]: 2 µg/mL
- MIC90 K. pneumoniae M7 (MDR) (K. pneumoniae M7 (MDR)): 16 to 32 µg/mL
- MIC90 E. cloacae ECLOS (MDR) (E. cloacae ECLOS (MDR)): 16 µg/mL
- IC50 Mouse fibroblast (3T3) (3T3 cells): >1024 μg per mL
- IC50 Human kidney (HEK293) (HEK293 cells; MTT): 64 µg/mL
- IC50 Human kidney (HEK293) (HEK293 cells; [12]): 64 μg per mL
- IC50 Human liver (HepG2) (HepG2 cells; MTT): >1024 µg/mL
- IC50 Human liver (HepG2) (HepG2 cells; [12]): >1024 μg per mL
- IC50 Human epithelial (A549) (A549 cells; MTT): >1,024 μg/ml
- IC50 Human epithelial (A549) (A549 cells; [12]): >1024 μg per mL
- propidium iodide uptake (P. aeruginosa PAO1 [8]): almost all cells treated with colistin were stained
- survival (K. pneumoniae (#13883); 20 mg/kg intratracheal, one week): survived
- reduction of K. pneumoniae in lung (K. pneumoniae (#13883); single 20 mg/kg intratracheal, versus infection control): similar

Molecule: gentamicin
- susceptibility of stationary phase cells to killing (P. aeruginosa PAO1 [9]; compared with killing by colistin, 4-h exposure): much less susceptible
- bactericidal activity on stationary-phase cells with fumarate (P. aeruginosa PAO1 [9]; fumarate 15 mM): restored

Molecule: gramicidin
- DiS-C3-(5) fluorescence (dissipation of membrane potential) (P. aeruginosa PAO1 [10]): dramatic increase in DiS-C3-(5) fluorescence

Molecule: polymyxin B
- MIC90 P. aeruginosa PAER (P. aeruginosa PAER): 2 mg per mL
- MIC90 A. baumanii AB-1 (MDR) (A. baumannii AB-1 (MDR)): 2 mg per mL
- MIC90 S. aureus USA300 (MRSA) (S. aureus USA300 (MRSA)): 64-128 mg per mL
- MIC90 S. aureus BAA40 (MRSA) (S. aureus BAA40 (MRSA)): 64-128
- MIC90 E. faecalis 583 (VRE) (E. faecalis 583 (VRE)): >128
- MIC90 A. baumanii X26 (MDR) (A. baumannii X26): 4
- MIC90 A. baumanii X39 (XDR) (A. baumannii X39): 8
- MIC90 Burkholderia thailandensis 700388 [4]: >128
- MIC90 Mycobacterium bovis bacillus Calmette-Guérin [11]: 64 mg per mL
- IC50 Mouse fibroblast (3T3) (3T3 cells): 920 μg per mL
- IC50 Human kidney (HEK293) (HEK293 cells; [12]): 240 μg per mL
- IC50 Human liver (HepG2) (HepG2 cells; [12]): 765 μg per mL
- IC50 Human epithelial (A549) (A549 cells; [12]): 879 μg per mL
